Two compounds from ChEMBL document CHEMBL4840347, “Design, synthesis, and biological evaluation of novel somatostatin receptor subtype-2 agonists: Optimization for potency and risk mitigation of hERG and phospholipidosis” (Bioorg Med Chem, 2021) can be followed below.

One may read the Cmax as the highest concentration seen after dosing. For orientation: Tmax means the time at which the peak concentration occurs. Usually AUC(0-t) stands for the area under the concentration-time curve up to a stated or last time point. A higher AUC(0-t) goes with more exposure. A word on the half-life: it is the time needed for the level to fall by half in the phase considered. As a reminder, the clearance is a measure of how efficiently the substance is removed, as volume per time. Lower therefore signals inefficient removal. As a reminder, the bioavailability is dose-corrected exposure relative to a reference, in per cent. A word on the AUC: it is concentration integrated over time. A higher AUC goes with more exposure.

Data set [1] in a line: Cmax in rat at 3 mg/kg, po. The note with it: in vivo. Also noted: route oral, dose 3 mg/kg. It is filed as ADME, organism-based.
Data set [2] can be described thus: Tmax in rat at 3 mg/kg, po. The conditions noted are these: in vivo. It is filed as ADME, organism-based.
A short description of data set [3]: AUC (0 to 24 hrs) in rat at 1 mg/kg, iv. It is filed as ADME, organism-based. Also noted: time < 24 hr, route intravenous, dose 1 mg/kg. The note with it: in vivo.
The nature of data set [4]: AUC (0 to 24 hrs) in rat at 3 mg/kg, po. It is filed as ADME, organism-based. The note with it: in vivo. Also noted: time < 24 hr, route oral, dose 3 mg/kg.
Data set [5] can be described thus: Half life in rat at 1 mg/kg, iv. It is filed as ADME, organism-based. The conditions noted are these: in vivo.
The nature of data set [6]: Half life in rat at 3 mg/kg, po. It is filed as ADME, organism-based. The conditions noted are these: in vivo.
Data set [7] can be described thus: Total clearance in rat at 1 mg/kg, iv. It is filed as ADME, organism-based. The note with it: in vivo.
The nature of data set [8]: Volume of distribution in rat at 1 mg/kg, iv. It is filed as ADME, organism-based. The conditions noted are these: in vivo, read-out: Vdss.
The nature of data set [9]: Oral bioavailability in rat at 3 mg/kg. It is filed as ADME, organism-based. The conditions noted are these: in vivo.
The nature of data set [10]: Half life in rat liver microsomes measured up to 60 mins in presence of NADPH by LC-MS/MS analysis. It is filed as ADME, Microsome. Background: Liver microsomes are a subcellular fraction often used to study metabolism.
Data set [11] in a line: Permeability of compound by PAMPA assay. It is filed as ADME. The conditions noted are these: read-out: permeability. Background: The PAMPA barrier holds no transporters, so it reflects passive diffusion.
Data set [12] is described as follows: Tmax in rat at 10 mg/kg, po. It is filed as ADME, organism-based. The note with it: in vivo.
A short description of data set [13]: AUC (0 to 24 hrs) in rat at 10 mg/kg, po. It is filed as ADME, organism-based. Also noted: time < 24 hr, route oral, dose 10 mg/kg. The note with it: in vivo.
The nature of data set [14]: Half life in rat at 10 mg/kg, po. The note with it: in vivo. It is filed as ADME, organism-based.
Data set [15] in a line: Oral bioavailability in rat at 10 mg/kg. It is filed as ADME, organism-based. The note with it: in vivo.

Compound `Cc1cc(C(=O)Nc2cncc(-c3cc(Cl)cc(Cl)c3)c2N2CCC(N)CC2)n(C)n1` yielded a Cmax in data set [1] of 32.1 ng/mL. Also, the Tmax in [2] stood at 2.3 h. Also, the values for the AUC(0-t) at 24 h in [3] and in data set [4] were 264 ng·h/mL and 271 ng·h/mL, respectively. In addition, the results for the half-life in [5], in [6] and in data set [10] were 6.1 h, 5.6 h and greater than 3.33 h, respectively. Besides, the clearance in data set [7] is 60.7 mL/min/kg. The Vd in data set [8] turned out to be 23.2 L/kg. Further, the bioavailability in data set [9] turned out to be 35.5%. The Papp in [11] worked out at 41 ×10⁻⁶ cm/s.

On to `COc1cc(OC)cc(-c2cncc(-c3nc4cc(C)ccc4[nH]3)c2N2CCC(N)CC2)c1`, for which, in data set [1], the Cmax was determined as 56.6 ng/mL. Besides, the Tmax in data set [2] and in data set [12] was 0.5 h throughout. Besides, the exposure (AUC) stood at 686 ng·h/mL in data set [3] (24 h) and 291 ng·h/mL in data set [13]. In data set [4], this compound gave an AUC(0-t) at 24 h of 291 ng·h/mL. Further, the half-life in data set [5] was 5.8 h; in [6], 6.5 h; in [10], greater than 3.33 h; in data set [14], 6.5 h. This compound came in with a clearance in [7] of 25.1 mL/min/kg. Also, the Vd in data set [8] amounted to 8.23 L/kg. For the same compound, the Papp in data set [11] worked out at 0.71 ×10⁻⁶ cm/s. The compound also displayed a F in [15] of 42%.
